Our source for the Kd and Ki values is BindingDB's records for doi:10.1002/cbic.201000413 (The University of Edinburgh, 2011).

Experiment [1] has as its target T1, Peptidyl-prolyl cis-trans isomerase A (Homo sapiens, UniProt P62937). As to the kind of experiment: Fluorescence Assay. The source says: The promising ligand from the results obtained from ESI-MS assay are subjected to fluorescence in vitro assay. The fluorescence assay takes advantage of the presence of a single tryptophan residue (Trp121) located close to the active site of CypA.

The target of experiment [2] is T1, Peptidyl-prolyl cis-trans isomerase A. The experiment in a line: ESI-MS Assay. The source says:
Electrospray mass spectrometry assay is a immunophilin-ligand binding assay which allows us to rapidly probe the affinity of potential inhibitors for CypA which rely on the use of soft-ESI conditions to preserve noncovalent interactions between protein and ligand.

The target is the same in experiment [3]. As to the kind of experiment: PPIase Assay. The source says:
The promising ligand from the results obtained from ESI-MS assay are subjected to PPIase in vitro assay. The PPIase assay assesses the abil9ity of ligands to inhibit the PPIase activity of CypA.

Several values for one entry are separate records, joined by “and”; a condition that tells them apart may be missing. Equal entries are not always repeated.

T1 sequence (P62937 whole entry): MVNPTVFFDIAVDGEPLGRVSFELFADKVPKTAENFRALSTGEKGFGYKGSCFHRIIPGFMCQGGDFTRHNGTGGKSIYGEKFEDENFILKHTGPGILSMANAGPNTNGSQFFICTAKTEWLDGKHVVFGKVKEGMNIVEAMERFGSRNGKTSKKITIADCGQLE

As a reminder, the Kd is the constant that tells how readily two partners part at equilibrium. Higher therefore signals a looser complex. By Ki is commonly meant the equilibrium dissociation constant of an inhibitor or competing ligand from its target. Consider `COC(=O)[C@H](CCCCNC(=O)OCc1ccccc1)C1C(=O)CC2C1=CC(=O)CC2(C)C` (some centres undefined) [Cyclophilin Inhibitor, 3a], for which the Kd in experiment [1] was 22.8 µM; in experiment [2], 128 µM. The Ki in experiment [3] was > 100 µM.

`COC(=O)[C@H](CCCN=C(N)N[N+](=O)[O-])C1C(=O)CC2C1=CC(=O)CC2(C)C` (some centres undefined) [Cyclophilin Inhibitor, 3c]: the Kd worked out at 29.6 µM in experiment [1] and 31.9 µM in experiment [2]. Further, the Ki in experiment [3] was > 100 µM.

On to `COC(=O)[C@H](CCCCNC(C)=O)C1C(=O)CC2C1=CC(=O)CC2(C)C` (some centres undefined) [Cyclophilin Inhibitor, 3d], for which the Kd in experiment [2] turned out to be 85.1 µM. The Ki in experiment [3] was > 100 µM.

`COC(=O)[C@H](CCCCNS(=O)(=O)c1cccc2c(N(C)C)cccc12)C1C(=O)CC2C1=CC(=O)CC2(C)C` (some centres undefined) [Cyclophilin Inhibitor, 3e]: the Kd in experiment [1] came out at 21.9 µM; in experiment [2], 113 µM. For the same compound, the affinity in experiment [3] corresponds to a Ki of 207 µM.

On to `COC(=O)[C@H](CCCCNS(=O)(=O)c1cccc2c(N(C)C)cccc12)C1C(=O)C[C@@H]2C1=CC(=O)CC2(C)C` (some centres undefined) [Cyclophilin Inhibitor, 3f], for which binding in experiment [2] was characterised by a dissociation constant (Kd) of 133 µM.

Turning to `COC(=O)[C@H](CCCCN)C1C(=O)CC2C1=CC(=O)CC2(C)C` (some centres undefined) [Cyclophilin Inhibitor, 15], the Kd in experiment [1] was 15.9 µM and > 50 µM; in experiment [2], 72.6 µM.
